Data published in patent publication US12590954B2, “Neural stem cell-induced differential medium and induction differentiation method” (IREGENE THERAPEUTICS, CO., LTD., priority 2020, dated 2026).
“Also recorded” adds a separate entry of the source.

Tests used:
[1] = system: Human pluripotent stem cells; assay: Chemical induction of neural stem cells (neural rosette formation, cell morphology); format: cell-based
Excerpt: Human pluripotent stem cells include embryonic pluripotent stem cells, such as the H19 cell line and human induced pluripotent stem cells. Wherein, the human induced pluripotent stem cells used in the present invention are obtained from the reprogramming of CD34^+ cells, which refers to “reprogramming culture medium and reprogramming induced pluripotent stem cell culture method” (the method in the patent ZL201910050800.7).
Human pluripotent stem cells are used to coat T25 cell culture flasks with Matrigel ([…] Technologies), and then placed in a 37° C. incubator for more than one hour after plating. Follow 1×10^6 Cells were seeded in T25 flasks for expansion and passage.
For neural induction, use 50 μg/mL poly-lysine (SIGMA, Cat. No.: P6407) to coat a 6-well culture plate, and incubate at 37° C. for more than 3 hours after plating; then use 5 μg/mL Laminin (SIGMA ALDRICH, Cat. No.: 12020) for further coat, and then place in a 37° C. incubator to incubate for more than 3 hours. When pluripotent stem cells reached 70% coverage, they were digested with EDTA at 37° C. for 5 min, and DMEM was used to stop cell digestion. Cells are washed and centrifuged at 2×10^5 the proportions of each flask and are re-seeded in T25 plates. Neural induction is performed using the medium of the present invention in combination with the neural inducing compound, and the medium is changed every day until the neural stem cell rosette is formed. […] Therefore, the single-molecule inducing method provided by this method can induce pluripotent stem cells to form neural rosette structures more efficiently and uniformly.
(§1) From the above results, it is known that the differentiation is not complete under the low concentration condition, and many different types of cells can be seen. However, neural stem cells obtained in high concentration condition are easily differentiated and cell stress appears.

[2] = system: Human pluripotent stem cells; assay: CyQuant quantitative detection of cell viability during induction; format: cell-based
Procedure: The Cyquant assay was used to perform the quantitative detection of cell viability, thus investigating the effect of LY2157299 on the physiological state of the cells during long-term culture of the cells; Among them, the LSB method was used as the control group. 96-well light-tight cell culture plates were coated; after the coating was complete, cells were seeded separately at 5×10^4 cell number per well and three sets of parallel replicates were set (the average of three sets was calculated as data) to repeat the procedure of example 2.1. Wherein, the culture procedures described previously were incubated at 37° C. with 5% CO2. Samples were taken on days 1, 5, 10, 15 and 20 for cell viability assay using CyQuant Kit (Invitrogen, cat. No: X12223). The aforementioned assay was operated according to the instructions with a Spectramax i3 Multi-Mode Microplate Reader (VWR, model number: ID3-STD) for data reading.

[3] = system: neural stem cells; assay: Q-PCR of marker genes during induction from pluripotent stem cells to neural stem cells; format: cell-based, human; details: different concentrations of LY2157299
Procedure: Transcriptional changes of different marker genes during induction from pluripotent stem cells to neural stem cells were detected by using Q-PCR. The induced pluripotent stem cells used in this example are neural stem cells derived by LY inducing method and LSB inducing method, respectively. Neural stem cells were prepared as described previously using Rneasy Mini or Micro Kit (QIAGEN) for total RNA extraction, in which […] RNA was used to synthesize cDNA with superscript III First-Strand Synthesis System (Invitrogen).
SYBR Premix Ex Taq (TaKaRa) and Thermal Cycler Dice Real Time System TaKaRa) were used to perform labeling and reactions for Quantitative PCR, with beta-Actin as internal reference. All the above data were analyzed with the delta-Ct method. Each set of trials was tested using three sets of replicates, and variance statistics were performed.
as §1

[4] = system: neural stem cells; assay: Directed differentiation of induced neural stem cells into neurons (immunofluorescence); format: cell-based, human
Procedure: The neural stem cells obtained by the LY inducing method in Example 2 were subjected to directed differentiation in NouvNeu001 basal medium. For neuronal differentiation, use 50 μg/mL polylysine (SIGMA ALDRICH, Cat. No.: P6407) to coat a 6-well culture plate, and place the plate in a 37° C. incubator and incubate for more than 3 hours until cells are seeded.
The neural stem cells obtained in example 2 were seeded at a density of 1×10^5 the ratio per flask was inoculated in T25 flasks, and 3 μM CHIR99021 (Selleck, Cat. No.: S2924), 10 μM SU5402 (Tocris, Cat. No.: 3300/1), 10 μM DAPT (Selleck, Cat. No.: 52215) were added to NouvNeu001 basal medium. Fresh medium was replaced every 3 days until day 21. The above cultures were incubated at 37° C. with 5% CO2.
The neural stem cells obtained in example 2 were seeded at a density of 1×10^5 the ratio per flask was inoculated in T25 flasks, and 1 μM Purmorphamine Sellek, Cat. No.: S3042) and […] TGF-β3 (Novoprotein, Cat. No.: CJ44) were added to NouvNeu001 basal medium to culture neural stem cells. Fresh medium was replaced every 3 days until day 30. The above cultures were incubated at 37° C. with 5% CO2.
The neural stem cells obtained in example 2 were seeded at a density of 1×10^5 the ratio per flask was inoculated in T25 flasks, and 0.5 μM retinyl acetate (SIGMA ALDRICH, Cat. No.: R7782) was added to NouvNeu001 basal medium. Fresh medium was replaced every 3 days until day 21. The above cultures were incubated at 37° C. with 5% CO2.
After induction and differentiation, the cells were harvested and identified by immunofluorescence staining: cells were fixed with 4% paraformaldehyde at room temperature for 40 minutes, washed twice with DPBS buffer; then permeabilized with 0.1% Triton X-100 for 5 minutes, and buffered with DPBS The cells were then washed twice with DPBS buffer containing 10% horse serum and 0.1% Triton X-100 at 4° C. overnight; the cells were washed with DPBS buffer and then washed with 2% horse serum and 0:1% Triton X-100. […]

[5] = system: major histocompatibility complex (MHC) genes; assay: Q-PCR detection of MHC genes of induced neural stem cells; format: cell-based; details: compared with human pluripotent stem cells
Excerpt: The major histocompatibility complex (MHC) genes of neural stem cells induced by LY2157299 was detected by Q-PCR method, and pluripotent stem cells (iPS) were used as control.

[6] = system: HLA-DR; assay: Flow cytometry detection of HLA-DR antigens of induced neural stem cells; format: cell-based, human
Procedure: The HLA-DR antigens of neural stem cells induced by LY2157299 were detected by flow cytometry. HLA-DR is an MHC class II molecule whose expression is critical for the antigen-presenting function of cells and plays a key role in adoptive immune responses. The induced neural stem cells obtained in Example 2 were digested with EDTA, washed with DPBS, centrifuged to remove the supernatant, and 10^6 Cells were resuspended in 100 μL of diluted primary antibody (CD45 PerCP, Abeam, Cat. No. ab157309; HLA-DR FITC, CST, Cat. No. 54126), incubated on ice for 1 hour in the dark, centrifuged to remove supernatant, and cells were resuspended in 500 μL of antibody dilution buffer (CST) and analyzed on a flow cytometer. Samples incubated without primary antibody were used as controls. The results are shown in FIG. 7, FIG. 7a is a negative control, FIG. 7b is the HLA-DR detection result of the neural stem cells obtained by LY2157299 induction.

[7] = system: human induced pluripotent stem cells; assay: Brain organoid formation and diameter; format: cell-based; details: 12.5 μM LY2157299
Procedure: Organoid culture was performed with human induced pluripotent stem cells. Organoid inducing medium was formulated as follows: NouvNeu basal medium supplemented with 12.5 μM […]. Induced pluripotent stem cells were digested to single cells by Accutase, seeded in 15-bottom-ultra-low attachment 96-well plates at a ratio of 9000 cells/[…] of brain organoid inducing medium per well. 10 μM ROCK inhibitor Y-27632 (Selleck, 51049) was added, and the cells were placed in a 37° C., 5% carbon dioxide cell incubator for 24 hours (Panasonic, model: MCO-18AC). Y-27632-free fresh organoid inducing medium was changed the following day until day 10. Day 10 the organoids were transferred to ultra-low-attachment 6-well plates and the medium was changed to NouvNeu001 basal medium supplemented with 2% B27 cell culture additive. The culture was conducted at 37° C. in a 5% CO2 cell culture incubator on a horizontal rotator at 80 rpm until day 120.
The control experiment was carried out according to the published method (Clair B et. al, Nat Methods. 2019, November; 16 (11): 1169-1175). N2B27 was used as the basic medium for organ like culture. […]
Organoids were photographed by Leica Dmi8. The brain organoids were photographed and their diameters were measured. […]

[8] = Freezing point osmometer: osmolality of the culture system; format: physicochemical
Procedure: A fully automated freezing point osmometer (FM-8P, Shanghai Yida Instruments Co., Ltd.) was used to detect the effects of different concentrations of sodium chloride on the osmolality of the culture system, and the specific operations were enrolled in the product instructions (FM-8P, Shanghai Vida Instruments Co., Ltd.). The test results are detailed in FIG. 2a. […] However, when the concentration reached […], the osmolality of the culture system already exceeded the cell culture limit of 320 mOsm/kg.

Cc1cccc(-c2nn3c(c2-c2ccnc4ccc(C(N)=O)cc24)CCC3)n1 [LY2157299, 4-(2-(6-methylpyridin-2-yl)-5,6-dihydro-4h-pyrrolo[1,2-b]pyrazol-3-yl) quinoline-6-carboxamide]
cell population obtained by chemical induction ([1]; 12.5 μM LY2157299): a uniform cell population | cell population obtained by chemical induction ([1]; 25 μM LY2157299): a mixed population of neural cells was obtained | cell stress on chemical induction ([1]; 25 μM LY2157299): cells showed signs of stress with intracellular vacuoles | cell population obtained by chemical induction ([1]; 20 nm LY2157299): a mixed population of cells including neural cells was obtained | number of neural cells induced (CyQuant) ([2]; samples on days 1, 5, 10, 15 and 20, LSB method as control): more number of neural cells compared with LSB method | Pax6 expression versus concentration (Q-PCR) [3]: positively correlated with Pax6 expression | apoptosis gene CASP3 versus concentration (Q-PCR) [3]: positively correlated with apoptosis | nociceptor neuron differentiation of induced neural stem cells: marker expression ([4]; CHIR99021, SU5402, DAPT in NouvNeu001 until day 21): able to express the nociceptor neuronal markers SCN11A and Nestin | dopaminergic neuron differentiation of induced neural stem cells: marker expression ([4]; Purmorphamine and TGF-β3 in NouvNeu001 until day 30): could express the mature dopaminergic neuron specific markers Tyrosine Hydroxylase (TH) and Pitx3 | photoreceptor neuron differentiation of induced neural stem cells: marker expression ([4]; retinyl acetate in NouvNeu001 until day 21): could express the photoreceptor neuronal markers OPSIN and CRX | expression of MHC associated genes in induced neural stem cells [5]: significantly lower than human induced pluripotent stem cells; also recorded: extremely low levels | HLA-DR antigen expression of induced neural stem cells [6]: do not express HLA-DR; also recorded: negative | generation of cerebral organoids [7]: can induce the generation of cerebral organoids

[Cl-].[Na+] [sodium chloride]
osmotic pressure of the culture system versus concentration ([8]; different concentrations of sodium chloride): linear increase | osmolality of the culture system ([8]; sodium chloride concentration 1 μg/mL): > 320 mOsm/kg

recombinant insulin: component of the basal medium
rate of cell proliferation versus concentration (CyQuant) ([2]; different concentrations, long-term culture): positively correlated with the rate of cell proliferation
